Test results as given in article PMC3425833, “Synthesis, Urease Inhibition, Antioxidant, Antibacterial, and Molecular Docking Studies of 1,3,4-Oxadiazole Derivatives” (ISRN Pharmacology, 2012).
In brackets after ≈: the same amount, converted by molar mass. Entries after “also recorded” stand apart in the source; their conditions may differ. Like-named read-outs stand apart in the source and are kept apart here.

Tests used:
Jack bean urease = Jack bean urease (Canavalia ensiformis, UniProt P07374); experiment: biochemical; assay type: biochemical; settings: for Urease inhibitory activity in words: qualitative statement
Bacillus subtilis = experiment: Antibacterial activity, serial tube dilution MIC; assay type: cell-based; settings: for MIC: Bacillus subtilis, read-out: MIC B. subtilus
Protocol: (§1) The antibacterial activity data is represented in Table 2. […] Ciprofloxacin was used as standard drug. The compounds were found active against bacterial strains (2 Gram positive bacteria, namely, Staphylococcus aureus, Bacillus subtilis, and 2 Gram negative bacteria namely Escherichia coli, Shigella flexneri) in variable concentration. The antibacterial activities of 1,3,4-oxadiazole derivatives were evaluated in vitro by serial tube dilution method. The compounds and standard drug ciprofloxacin were dissolved in N,N-dimethylformamide (DMF) to give a concentration of 5 μg/mL (stock solution). Necessary apparatus and test tubes set of capacity 5 mL was washed cleaned and completely dried. For the bacterial culture double strength nutrient broth was used. The culture media was made by dissolving 15 g of nutrient broth in 1 L of distilled water. Approximately, 1 mL of culture media was prepared and transferred to each test tube by micropipette and capped with non-adsorbent cotton plugs. The test tubes containing 1 mL culture media was sterilized in an autoclave at 121°C for 20 min at 15 psi pressure. Sub-culturing of bacteria was done by transferring a loopful of particular bacterial strain from standard bacterial agar to 10 mL sterilized nutrient broth aseptically in a laminar air flow cabinet. It was then incubated for a period of 24 h at 37°C in a B. O. D. incubator. Bacterial strain suspension was prepared, after 24 h incubation, by aseptically inoculating 0.2 mL of revived bacterial colony into 100 mL of 0.9% m/v saline. A series of 5 assay tubes for a single derivative against each bacterial strain was employed. A stock solution of each test derivative at concentration 5 μg/mL (containing 1 mL nutrient broth) was serially diluted to achieve concentrations of 2.5, 1.25, 0.625, 0.313, and 0.156 μg/mL. Then, 0.1 mL of normal saline suspension of revived bacteria was added to each test tube. The inoculated tubes were incubated at 37°C for 24 h. The MIC (minimum inhibitory concentration) values were determined by subsequently checking for the absence of visual turbidity.

Escherichia coli = experiment: Antibacterial activity, serial tube dilution MIC; assay type: cell-based; settings: for MIC: Escherichia coli, 24 h, read-out: MIC E. coli; for Antibacterial activity against E. coli compared to standard ciprofloxacin: in words
Protocol: as §1

Shigella flexneri = experiment: Antibacterial activity, serial tube dilution MIC; assay type: cell-based; settings: for MIC: Shigella flexneri, read-out: MIC S. flexneri; for Antibacterial activity against S. flexneri compared to standard ciprofloxacin: in words
Protocol: as §1

Staphylococcus aureus = experiment: Antibacterial activity, serial tube dilution MIC; assay type: cell-based; settings: for MIC: Staphylococcus aureus, read-out: MIC S. aureus; for Antibacterial activity against S. aureus compared to standard ciprofloxacin: in words
Protocol: as §1

[1] = DPPH radical scavenging (antioxidant) assay; settings: for IC50: DPPH 300 μM, half an hour at 37°C; for DPPH radical scavenging activity compared to standard propyl gallate: in words
Protocol: The free radical scavenging capacity of the compounds was measured by 1,1-diphenyl-2-picrylhydrazyl. Test compounds were allowed to react with stable free radical, 1,1-diphenyl-2-picrylhydrazyl radical (DPPH) for half an hour at 37°C. The concentration of DPPH was kept as 300 μM. The test samples were dissolved in DMSO while the DPPH solution was prepared in ethanol. After incubation, decrease in absorption was measured at 515 nm using microplate reader. Percent radical scavenging activity of samples was determined in comparison with a DMSO treated as control. Propyl gallate and 3-tert-Butyl-4-hydroxyanisole were used as standards.

[2] = average of three readings, 24 h at 37°C

Chain of Jack bean urease (P07374 whole entry, looked up): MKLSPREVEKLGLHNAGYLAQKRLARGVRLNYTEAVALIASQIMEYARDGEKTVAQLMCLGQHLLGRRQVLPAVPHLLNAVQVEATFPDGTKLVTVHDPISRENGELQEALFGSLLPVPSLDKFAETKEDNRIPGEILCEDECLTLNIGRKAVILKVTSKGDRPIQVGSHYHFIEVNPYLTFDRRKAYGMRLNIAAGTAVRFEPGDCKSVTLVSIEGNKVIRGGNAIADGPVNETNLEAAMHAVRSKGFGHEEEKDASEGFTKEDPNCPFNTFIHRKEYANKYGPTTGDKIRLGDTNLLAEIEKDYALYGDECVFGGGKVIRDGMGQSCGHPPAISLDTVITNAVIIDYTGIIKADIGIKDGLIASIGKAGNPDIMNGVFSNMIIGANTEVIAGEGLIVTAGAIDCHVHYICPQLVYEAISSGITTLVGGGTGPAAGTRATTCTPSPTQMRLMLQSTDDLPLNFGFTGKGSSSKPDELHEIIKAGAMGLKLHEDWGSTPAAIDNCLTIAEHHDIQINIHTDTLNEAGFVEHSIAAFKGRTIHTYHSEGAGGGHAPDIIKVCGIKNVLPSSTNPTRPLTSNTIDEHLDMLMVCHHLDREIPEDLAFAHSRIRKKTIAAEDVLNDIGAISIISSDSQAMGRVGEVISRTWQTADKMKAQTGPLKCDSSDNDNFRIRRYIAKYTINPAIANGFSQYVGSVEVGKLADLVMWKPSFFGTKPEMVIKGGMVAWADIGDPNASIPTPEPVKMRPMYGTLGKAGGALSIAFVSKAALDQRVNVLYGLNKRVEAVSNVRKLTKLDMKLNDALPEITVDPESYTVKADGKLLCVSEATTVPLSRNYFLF

SMILES	IC50 (Jack bean urease) [µM]	Antibacterial activity against B. subtilus relative to ciprofloxacin (Bacillus subtilis) [fold]	MIC (Bacillus subtilis; 24 h) [µg/mL]	MIC (Escherichia coli; [2]) [µg/mL]	MIC (Shigella flexneri; [2]) [µg/mL]	Antibacterial activity against S. flexneri compared to standard ciprofloxacin (Shigella flexneri)	MIC (Staphylococcus aureus; 24 h) [µg/mL]	Antibacterial activity against S. aureus compared to standard ciprofloxacin (Staphylococcus aureus)	IC50 [1] [µM]	MIC (Bacillus subtilis; [2]) [µg/mL]	MIC (Escherichia coli) [µg/mL]	MIC (Staphylococcus aureus; [2]) [µg/mL]	Urease inhibitory activity in words (Jack bean urease)	Antibacterial activity against E. coli compared to standard ciprofloxacin (Escherichia coli)	IC50 (Jack bean urease; triplicate, thiourea standard, read-out: IC50 ± SEM, inhibitory activity against Jack bean urease) [µM]	DPPH radical scavenging activity compared to standard propyl gallate [1]	inhibition at 100 µM (Jack bean urease; read-out: % inhibition of Jack bean urease) [%]	MIC (Shigella flexneri; 24 h) [µg/mL]	Urease inhibitory activity relative to the standard (thiourea) (Jack bean urease; more active than the standard) [fold]
COc1cccc(Cc2n[nH]c(=S)o2)c1 [Compound 4n, 5-(3-Methoxybenzyl)-1,3,4-oxadiazole-2(3H)-thione]	12.2 ± 0.05	4	0.156 (≈ 0.702 µM)	0.625 (≈ 2.81 µM)	0.156 (≈ 0.702 µM)	two-fold activities	0.156 (≈ 0.702 µM)	equipotent activity	60.3 ± 4.3	–	–	–	–	–	–	–	–	–	–
COc1ccc(-c2n[nH]c(=S)o2)c(OC)c1OC [Compound 4a, 5-(2,3,4-Trimethoxyphenyl)-1,3,4-oxadiazole-2(3H)-thione]	5.79 ± 0.3	4	–	–	0.313 (≈ 1.17 µM)	equipotent activity	–	–	123 ± 5.1	0.156 (≈ 0.581 µM)	0.313 (≈ 1.17 µM)	1.25 (≈ 4.66 µM)	–	–	–	–	–	–	–
S=c1[nH]nc(Cc2ccc(Cl)cc2Cl)o1 [Compound 4h, 5-(2,4-Dichlorobenzyl)-1,3,4-oxadiazole-2(3H)-thione]	42.4 ± 1.2	4	0.156 (≈ 0.597 µM)	1.25 (≈ 4.79 µM)	0.156 (≈ 0.597 µM)	two-fold activities	–	–	57.8 ± 1.8	–	–	0.625 (≈ 2.39 µM)	weak inhibitory activities	considerably less active	–	–	–	–	–
COc1ccccc1Cc1n[nH]c(=S)o1 [Compound 4m, 5-(2-Methoxybenzyl)-1,3,4-oxadiazole-2(3H)-thione]	5.6 ± 0.6	4	–	0.625 (≈ 2.81 µM)	0.313 (≈ 1.41 µM)	equipotent activity	–	–	42.7 ± 3.7	0.156 (≈ 0.702 µM)	–	1.25 (≈ 5.62 µM)	–	–	–	–	–	–	–
COc1cccc(CCc2n[nH]c(=S)o2)c1 [Compound 4o, 5-(3-Methoxyphenethyl)-1,3,4-oxadiazole-2(3H)-thione]	15.1 ± 0.8	–	–	0.313 (≈ 1.32 µM)	0.156 (≈ 0.66 µM)	two-fold activities	–	–	43.6 ± 3.1	0.625 (≈ 2.64 µM)	–	2.5 (≈ 10.6 µM)	–	–	–	–	–	–	–
NC(N)=S [Thiourea, reference compound]	–	–	–	–	–	–	–	–	–	–	–	–	–	–	22.3 ± 1.2	–	–	–	–
COc1ccc(O)c(C(C)(C)C)c1 [3-tert-Butyl-4-hydroxyanisole, reference compound]	–	–	–	–	–	–	–	–	28.2 ± 1.1	–	–	–	–	–	–	–	–	–	–
COc1ccccc1CCc1n[nH]c(=S)o1 [Compound 4i, 5-(2-Methoxyphenethyl)-1,3,4-oxadiazole-2(3H)-thione]	6.22 ± 0.4	–	–	0.156 (≈ 0.66 µM)	0.313 (≈ 1.32 µM)	equipotent activity	0.313 (≈ 1.32 µM)	–	40.2 ± 3.3	0.625 (≈ 2.64 µM)	–	–	–	equipotent	–	Equipotent	–	–	–
S=c1[nH]nc(Cc2ccc(Cl)c(Cl)c2)o1 [Compound 4e, 5-(3,4-Dichlorobenzyl)-1,3,4-oxadiazole-2(3H)-thione]	11.3 ± 0.6	–	–	0.156 (≈ 0.597 µM)	0.313 (≈ 1.2 µM)	equipotent activity	0.313 (≈ 1.2 µM)	–	59 ± 6.3	0.625 (≈ 2.39 µM)	–	–	–	equipotent	–	–	–	–	–
Fc1cc(Cl)ccc1-c1n[nH]c(=S)o1 [Compound 4r, 5-(4-Chloro-2-fluorophenyl)-1,3,4-oxadiazole-2(3H)-thione]	–	–	0.313 (≈ 1.36 µM)	–	0.313 (≈ 1.36 µM)	equipotent activity	–	equipotent activity	10.8 ± 0.2	–	–	0.156 (≈ 0.676 µM)	weak inhibitory activities	equipotent; also recorded: considerably less active	–	four-fold	39	–	–
Fc1ccccc1Cc1n[nH]c(=S)o1 [Compound 4f, 5-(2-Fluorobenzyl)-1,3,4-oxadiazole-2(3H)-thione]	3.27 ± 0.3	4	–	0.313 (≈ 1.49 µM)	1.25 (≈ 5.95 µM)	–	–	equipotent activity	46.6 ± 4.6	0.156 (≈ 0.742 µM)	–	0.156 (≈ 0.742 µM)	–	–	–	–	–	–	–
S=c1[nH]nc(-c2cc3ccccc3[nH]2)o1 [Compound 4b, 5-(1H-Indol-2-yl)-1,3,4-oxadiazole-2(3H)-thione]	21.3 ± 0.7	–	0.313 (≈ 1.44 µM)	0.625 (≈ 2.88 µM)	0.313 (≈ 1.44 µM)	equipotent activity	–	equipotent activity	107 ± 3.4	–	–	0.156 (≈ 0.718 µM)	nearly same activity	–	–	–	–	–	–
S=c1[nH]nc(Cc2ccccc2Cl)o1 [Compound 4k, 5-(2-Chlorobenzyl)-1,3,4-oxadiazole-2(3H)-thione]	12.9 ± 0.6	–	–	–	0.156 (≈ 0.688 µM)	two-fold activities	0.156 (≈ 0.688 µM)	equipotent activity	34.4 ± 3.2	0.313 (≈ 1.38 µM)	0.156 (≈ 0.688 µM)	–	–	equipotent	–	more effective	–	–	–
CCCOC(=O)c1cc(O)c(O)c(O)c1 [Propyl gallate, reference compound]	–	–	–	–	–	–	–	–	40.8 ± 1.2	–	–	–	–	–	–	–	–	–	–
COc1ccc(Cc2n[nH]c(=S)o2)cc1 [Compound 4l, 5-(4-Methoxybenzyl)-1,3,4-oxadiazole-2(3H)-thione]	5.83 ± 0.08	–	–	0.313 (≈ 1.41 µM)	0.156 (≈ 0.702 µM)	two-fold activities	–	–	88.2 ± 4.1	2.5 (≈ 11.2 µM)	–	0.625 (≈ 2.81 µM)	–	–	–	–	–	–	–
O=C(O)c1cn(C2CC2)c2cc(N3CCNCC3)c(F)cc2c1=O [Ciprofloxacin, reference compound]	–	–	–	0.156 (≈ 0.471 µM)	–	–	–	–	–	0.625 (≈ 1.89 µM)	–	0.156 (≈ 0.471 µM)	–	–	–	–	–	0.31 (≈ 0.936 µM)	–
S=c1[nH]nc(Cc2ccc(Cl)cc2)o1 [Compound 4j, 5-(4-Chlorobenzyl)-1,3,4-oxadiazole-2(3H)-thione]	1.15 ± 0.2	–	–	0.313 (≈ 1.38 µM)	0.156 (≈ 0.688 µM)	two-fold activities	–	–	51.6 ± 2.1	1.25 (≈ 5.51 µM)	–	0.313 (≈ 1.38 µM)	–	–	–	–	–	–	20
S=c1[nH]nc(Cc2ccc(Br)cc2)o1 [Compound 4c, 5-(4-Bromobenzyl)-1,3,4-oxadiazole-2(3H)-thione]	11.8 ± 0.4	4	0.156 (≈ 0.575 µM)	2.5 (≈ 9.22 µM)	0.156 (≈ 0.575 µM)	two-fold activities	–	–	38 ± 4.1	–	–	0.625 (≈ 2.31 µM)	–	considerably less active	–	more effective	–	–	–
COc1ccc(CCc2n[nH]c(=S)o2)cc1 [Compound 4g, 5-(4-Methoxyphenethyl)-1,3,4-oxadiazole-2(3H)-thione]	5.61 ± 0.3	–	–	0.156 (≈ 0.66 µM)	0.313 (≈ 1.32 µM)	equipotent activity	–	–	50.8 ± 2.1	0.625 (≈ 2.64 µM)	–	2.5 (≈ 10.6 µM)	–	equipotent	–	–	–	–	–
